According to US20130065834A1, “MODULATORS OF PROTEASOME ACTIVITY” (SALK INSTITUTE FOR BIOLOGICAL STUDIES, priority 2011, published 2013):
Entries after “also recorded” stand apart in the source; their conditions may differ. Residues, ends and D or L forms follow the SMILES beside them. *: point of attachment. Cbz = O=C(OCc1ccccc1)*

Experiments:
[1] = test system: chymotrypsin-like activity of the proteasome; test: 26S proteasome fluorogenic peptidase assay in worm lysate, chymotrypsin-like (Z-GGL-AMC / Suc-LLVY-AMC); format: biochemical, C. elegans; conditions: worms at 25° C., 100 μg ml^−1 for the first three days of adulthood; FIG. 11
Description: (§1) 26S proteasome activity assays. In vitro 26S proteasome activity assays were performed as previously described [Finley, D. Recognition and processing of ubiquitin-protein conjugates by the proteasome. Annual review of biochemistry 78, 477-513 (2009)]. Worms were lysed in proteasome activity assay buffer (50 mM Tris-HCl pH 7.5, 250 mM sucrose, 5 mM MgCl2, 0.5 mM EDTA, 2 mM ATP and 1 mM dithiothreitol) using a Precellys 24 homogenizer (Bertin technologies). Lysate was centrifuged at 10,000 g for 15 min at 4° C. 25 μg of total protein lysate was transferred to a 96-well microtiter plate (BD Falcon) and incubated with fluorogenic substrate. Fluorescence (380-nm excitation, 460-nm emission) was monitored on a microplate fluorometer (Infinite M1000, Tecan) every 5 min for 1 h at 25° C.
(§2) 26S proteasome fluorogenic peptidase assays. […] Methods in enzymology 398, 364-378 (2005)]. Briefly, worms were lysed in proteasome activity assay buffer (50 mM Tris-HCl pH 7.5, 250 mM sucrose, 5 mM MgCl2, 0.5 mM EDTA, 2 mM ATP and 1 mM dithiothreitol) using a Precellys 24 homogenizer (Bertin technologies). Lysate was centrifuged at 10,000 g for 15 min at 4° C. For each experiment, 25 μg of total protein lysate was transferred to a 96-well microtiter plate (BD Falcon) then fluorogenic substrate was added. For measuring the chymotrypsin-like activity of the proteasome either Z-Gly-Gly-Leu-AMC (Enzo) or Suc-Leu-Leu-Val-Tyr-AMC (Enzo) was used. Z-Leu-Leu-Glu-AMC (Enzo) was used to measure the caspase-like activity of the proteasome and Ac-Arg-Leu-Arg-AMC for the proteasome trypsin-like activity. Fluorescence (380-nm excitation, 460-nm emission) was monitored on a microplate fluorometer (Infinite M1000, Tecan) every 5 min for 1 h at 25° C.

[2] = target: T1, chymotrypsin-like activity of the proteasome (Caenorhabditis elegans, UniProt Q9XUV0); test: as above; format: biochemical, C. elegans; conditions: inhibitor 20 min prior to substrate, vs DMSO
T1 construct: worms were lysed in proteasome activity assay buffer; from tissue; host or cells: whole-worm lysate of adult C. elegans (N2, glp-1(e2141), fer-15;fem-1, daf-16;glp-1, rpn-6.1 OE and RNAi-fed strains)
T1 sequence (Q9XUV0 65-284): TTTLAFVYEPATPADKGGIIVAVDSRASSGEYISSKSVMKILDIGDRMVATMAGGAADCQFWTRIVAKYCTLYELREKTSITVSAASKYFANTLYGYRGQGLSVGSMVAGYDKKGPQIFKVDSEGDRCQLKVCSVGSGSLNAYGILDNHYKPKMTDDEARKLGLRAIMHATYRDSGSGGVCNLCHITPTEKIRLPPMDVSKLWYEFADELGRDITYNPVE
Description: as §1, §2

[3] = target: T2, chymotrypsin-like activity of the proteasome (Homo sapiens, UniProt P28074); test: 26S proteasome fluorogenic peptidase assay in human cell extracts, chymotrypsin-like; format: biochemical; conditions: H9 hESCs; 62.5 nM for 24 hours; vs DMSO
T2 construct: 15-25 μg of total protein of cell lysates were transferred to a 96-well microtiter plate; endogenous in cells; host or cells: H9 and HUES-6 hESCs and derived NPCs, neurons, trophoblasts and fibroblasts; BJ fibroblasts, astrocytes, HEK293T
T2 sequence (P28074 60-263): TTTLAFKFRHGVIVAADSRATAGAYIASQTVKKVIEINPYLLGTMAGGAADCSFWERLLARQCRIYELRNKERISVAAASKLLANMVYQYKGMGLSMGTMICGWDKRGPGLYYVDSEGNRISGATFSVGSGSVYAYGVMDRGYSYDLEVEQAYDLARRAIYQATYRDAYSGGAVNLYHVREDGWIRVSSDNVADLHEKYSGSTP
Description: 26S proteasome fluorogenic peptidase assays. In vitro assay of 26S proteasome activities was performed as previously described (Kisselev, A. F. & Goldberg, A. L., Methods in enzymology 398, 364-378 (2005)). Cells were collected in proteasome activity assay buffer (50 mM Tris-HCl (pH 7.5), 250 mM sucrose, 5 mM MgCl2, 0.5 mM EDTA, 2 mM ATP and 1 mM dithiothreitol) and lysed by passing 10 times through a 27 gauge needle attached to a 1 ml syringe. Lysate was centrifuged at 10,000 g for 10 min at 4° C. 15-25 μg of total protein of cell lysates were transferred to a 96-well microtiter plate (BD Falcon) and then the fluorogenic substrate was added to lysates. For measuring the chymotrypsin-like activity of the proteasome Applicants used either Z-Gly-Gly-Leu-AMC (Enzo) or Suc-Leu-Leu-Val-Tyr-AMC (Enzo). Applicants used Z-Leu-Leu-Glu-AMC (Enzo) to measure the caspase-like activity of the proteasome and Ac-Arg-Leu-Arg-AMC for the proteasome trypsin-like activity. Fluorescence (380-nm excitation, 460-nm emission) was monitored on a microplate fluorometer (Infinite M1000, Tecan) every 5 min for 1 h at 25° C. Protein concentration of the cell homogenates was determined using the BCA protein assay (Pierce).

[4] = test system: H9 hESCs; test: quantitative RT-PCR in H9 hESCs; format: cell-based, human; conditions: 62.5 nM 24 h, relative to DMSO
Description: Lentiviral infection of human stem cells. hESC colonies growing on Matrigel were incubated with mTesR1 medium containing 10 μM ROCK inhibitor (Y-27632) for one hApplicants' and individualized using Accutase 1×. 5×10^5 cells were infected in suspension with 10 μl of concentrated lentivirus in the presence of 10 μM ROCK inhibitor. Cell suspension was centrifuged to remove virus, passed through a mesh of […] to obtain individual cells and plated back on a feeder layer of fresh MEFs in hESC cell media supplemented with 10 μM ROCK inhibitor. After a few days in culture, small hES cell colonies arose. For LV-GFP and LV-shFOXOs stable lines, GFP positive colonies were selected and manually passaged onto fresh MEFs to establish new hESC cell lines. For LV-non-targeting shRNA, shPSMD11, shPSMC2, FOXO4 OE, FOXO4 AAA OE and PSMD11 OE stable lines, Applicants performed 1 μg/ml puromycin resistance selection during 3 days and then colonies were manually passaged onto fresh MEFs to establish new hESC cell lines. […]
RNA isolation and quantitative RT-PCR. Total RNA was extracted using RNAbee (Tel-Test Inc). cDNA was created using the Quantitect Reverse Transcriptase kit (Qiagen). […] Data was analyzed with the comparative 2ΔΔCt method using β-actin and GAPDH as housekeeping genes. […]

[5] = test system: polyubiquitinylated proteins, proteasome subunits, transcription factors; test: Western blot of human cell extracts; format: cell-based; conditions: H9 hESCs; 62.5 nM 24 h
Description: Western Blot. For analysis of proteasome subunits, cells were collected in proteasome activity assay buffer supplemented with protease inhibitors (Roche) and lysed by passing 10 times through a 27 gauge needle attached to a 1 ml syringe. Lysate was centrifuged at 10,000 g for 10 min at 4° C. Protein concentration of the cell homogenates was determined using the BCA protein assay (Pierce). For analysis of transcription factor and polyubiquitinylated proteins, cells were harvested from tissue culture plates by cell scraping and lysed in protein cell lysis buffer (10 mM Tris-Cl pH7.4, 10 mM EDTA, 50 mM NaCl, 50 mM NaF, 1% Triton X-100, 0.1% SDS supplemented with 2 mM sodium orthovanadate, 1 mM PMSF and Complete Mini Protease and PhosSTOP inhibitor cocktail mix) for 2 hrs at 1,000 rpm and 4° C. in a Thermomixer. Protein concentrations were determined with a standard Bradford protein assay (BioRad). 20-50 μg of total protein were separated by SDS-PAGE, transferred to nitrocellulose membranes (Whatman) and subjected to immunoblotting. […]

[6] = test system: hESCs; test: MG-132 treatment of cultured cells, cell death and detachment; format: cell-based, human; conditions: hESCs vs NPCs or neurons; data not shown
[7] = fer-15(b26);fem-1(hc17) worm lysate

Row | Structure (SMILES) | proteasome activity in treated worms [1] | chymotrypsin-like proteasome activity (Z-GGL-AMC) [2, 7] | chymotrypsin-like proteasome activity (Z-GGL-AMC) ([2]; glp-1(e2141) worm lysate) | proteasome activity in hESCs [3] | pluripotency markers (Real Time PCR) [4] | polyubiquitinylated proteins [5] | sensitivity to proteasome inhibition (cell death and detachment) [6]
1 | O=c1[nH]c(=O)n([C@H]2C[C@H](O)[C@@H](CO)O2)cc1F [FUdR, 5-fluoro-2′ deoxyuridine] | did not affect proteasome activity |  |  |  |  |  | 
2 | CC(C)C[C@@H](C=O)NC(=O)[C@H](CC(C)C)NC(=O)[C@H](CC(C)C)NC(=O)OCc1ccccc1 [MG-132] (Cbz-Leu-Leu-Leu-aldehyde) |  | blocked activity from extracts; also recorded: blocked chymotrypsin-like proteasome activity | blocked activity from extracts; also recorded: blocked chymotrypsin-like proteasome activity | sufficient to reduce proteasome activity; also recorded: dramatically decreases proteasome activity | decreased pluripotency markers; also recorded: induces a decrease in pluripotency markers | induces accumulation of polyubiquitinylated proteins | hESCs were more sensitive to proteasome inhibition than NPCs or neurons
3 | CC(=O)N[C@@H](CSC(=O)[C@]1([C@@H](O)C(C)C)NC(=O)[C@H](C)[C@@H]1O)C(=O)O [lactacystin] |  | blocked activity from extracts; also recorded: blocked chymotrypsin-like proteasome activity | blocked activity from extracts; also recorded: blocked chymotrypsin-like proteasome activity |  |  |  | 
